Experimental data reported in patent EP4678638A1, “NEW E3 UBIQUITIN LIGASE LIGAND, PROTEIN DEGRADATION AGENT AND USE THEREOF” (priority 2023, dated 2024).
Where two headings read alike, the source gives them in different places.

How the values were obtained:
SW620 = test: CCK-8 proliferation, SW620; assay type: cell-based; settings: Homo sapiens, SW-620; CCK-8; 96 hours; read-out: Inhibitory activity (IC50) on tumor cell proliferation, SW620
Method in brief: (§1)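 Cells seeded, then after 24 h treated with 10 concentrations (top 10 µM, 5-fold serial dilution) for a line-specific time at 37°C, 5% CO2. Viability read by CCK-8; IC50 fitted from growth-inhibition curves.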

TMD8 = test: CCK-8 proliferation, TMD8; assay type: cell-based; settings: Homo sapiens, TMD8; CCK-8; 72 hours; read-out: Inhibitory activity (IC50) on tumor cell proliferation, TMD8
Procedure: (§2) The tumor cells used herein were cultured in a cell culture medium listed in table A1 at 37°C in an incubator with 5% CO2. Prior to experimentation, all cell lines used were correctly identified by STR profiling, and tested negative for mycoplasma contamination using a mycoplasma detection kit through routine screenings. Table A1. Tumor cells and cell culture medium used in the present disclosure
(§3) IC50 values of the compounds of the present disclosure (including the compounds in Table 1, and compounds of examples) were measured using the Meilun Cell Counting Kit-8 kit from Dalian Meilun Biotech Co., Ltd. Assay details are as follows: tumor cells were seeded in a 96-well plate at a density listed in Table A2. After 24h, 100 µL of the inoculated cells were treated with 0.5µL of the compounds of the present disclosure (including the compounds in Tables 1 and 2, and compounds of examples) at 10 different successively decreasing concentrations (starting at the highest concentration of 10µM; 5-fold serial dilutions). After the cells were treated with the compounds of the present disclosure for a period of time, the cell viability detection reagent was added to the culture medium for cell viability assessment according to the instructions provided with the CCK-8 kit. […] The growth inhibition of the compounds of the present disclosure on cells was plotted by Prism Graphpad software, and the IC50 values of the compounds of the present disclosure were calculated therefrom. […] Seeding protocol and treatment time for tumor cells

THP-1 = test: CCK-8 proliferation, THP-1; assay type: cell-based; settings: Homo sapiens, 72 hours, read-out: Inhibitory activity (IC50) on tumor cell proliferation, THP-1
Procedure: as §2, §3

CCRF-CEM = test: CCK-8 proliferation, CCRF-CEM; assay type: cell-based, Human; settings: Homo sapiens, CCRF-CEM; CCK-8; 96 hours; read-out: Inhibitory activity (IC50) on tumor cell proliferation, CCRF-CEM
Method in brief: as §1

Jurkat = test: CCK-8 proliferation, Jurkat; assay type: cell-based, Human; settings: Homo sapiens, Jurkat; CCK-8; 96 hours; read-out: Inhibitory activity (IC50) on tumor cell proliferation, Jurkat
Method in brief: as §1

LNcap = test: CCK-8 proliferation, LNcap; assay type: cell-based; settings: Homo sapiens, LNCaP; CCK-8; 96 hours; read-out: Inhibitory activity (IC50) on tumor cell proliferation, Lncap
Method in brief: as §1

LS174T = test: CCK-8 proliferation, LS174T; assay type: cell-based; settings: Homo sapiens, read-out: Inhibitory activity (IC50) on tumor cell proliferation, LS174T
Procedure: IC50 values of the compounds of the present disclosure (including the compounds in Table 1, and compounds of examples) were measured using the Meilun Cell Counting Kit-8 kit from Dalian Meilun Biotech Co., Ltd. Assay details are as follows: tumor cells were seeded in a 96-well plate at a density listed in Table A2. After 24h, 100 µL of the inoculated cells were treated with 0.5µL of the compounds of the present disclosure (including the compounds in Tables 1 and 2, and compounds of examples) at 10 different successively decreasing concentrations (starting at the highest concentration of 10µM; 5-fold serial dilutions). After the cells were treated with the compounds of the present disclosure for a period of time, the cell viability detection reagent was added to the culture medium for cell viability assessment according to the instructions provided with the CCK-8 kit. […] The growth inhibition of the compounds of the present disclosure on cells was plotted by Prism Graphpad software, and the IC50 values of the compounds of the present disclosure were calculated therefrom. [drawing 1519] Table A2. Seeding protocol and treatment time for tumor cells

SU-DHL-6 = test: CCK-8 proliferation, SU-DHL-6; assay type: cell-based; settings: Homo sapiens, SU-DHL-6; CCK-8; 72 hours; read-out: Inhibitory activity (IC50) on tumor cell proliferation, SU-DHL-6
Procedure: as §2, §3

[1] = target: T1, human Cereblon WT GST-tagged protein (Homo sapiens, UniProt Q96SW2); test: CRBN binding, HTRF (CEREBLON BINDING kit); settings: for inhibition at 0.5 µM: read-out: Inhibition rate (%) at 0.5µM; for inhibition at 2 µM: read-out: Inhibition rate (%) at 2 µM
T1 construct: purchased CISBIO 64BDCRBNPEH
Method in brief: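 Competitive HTRF: GST-tagged human WT Cereblon mixed with compound, Thalidomide-Re tracer and GST Eu antibody, incubated 3 h at room temperature. Signals read at 620 and 665 nm.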

H1975 = test: CCK-8 proliferation, NCI-H1975 (H1975); assay type: cell-based, Human; settings: Homo sapiens, NCI-H1975; CCK-8; 96 hours; read-out: Inhibitory activity (IC50) on tumor cell proliferation, H1975
Method in brief: as §1

MM.1R = test: CCK-8 proliferation, MM.1R; assay type: cell-based; settings: CCK-8, 72 hours, read-out: Inhibitory activity (IC50) on tumor cell proliferation, MM.1R
Method in brief: as §1

MV-4-11 = test: CCK-8 proliferation, MV-4-11; assay type: cell-based, Human; settings: Homo sapiens, MV4-11; CCK-8; 72 or 96 hours; read-out: Inhibitory activity (IC50) on tumor cell proliferation, MV-4-11
Method in brief: as §1

SR = test: CCK-8 proliferation, SR; assay type: cell-based, Human; settings: Homo sapiens, SR; CCK-8; 72 hours; read-out: Inhibitory activity (IC50) on tumor cell proliferation, SR
Method in brief: as §1

CAL-62 = test: CCK-8 proliferation, CAL-62; assay type: cell-based; settings: Homo sapiens, 72 hours, read-out: Inhibitory activity (IC50) on tumor cell proliferation, CAL-62
Procedure: as §2, §3

FAK = target: T2, FAK (Homo sapiens, UniProt Q05397); test: Western blot degradation of FAK; assay type: cell-based; settings: Table D7
T2 construct: evaluate the effects of the compounds of the present disclosure on the expression of target proteins in cells; endogenous in cells
Method in brief: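 Quantification by ImageJ densitometry of Western blot bands: DC50 is the fitted concentration halving band intensity relative to DMSO. Percent remaining uses internal-control normalization, and degradation rate is its complement.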

T1 sequence (Q96SW2 whole entry): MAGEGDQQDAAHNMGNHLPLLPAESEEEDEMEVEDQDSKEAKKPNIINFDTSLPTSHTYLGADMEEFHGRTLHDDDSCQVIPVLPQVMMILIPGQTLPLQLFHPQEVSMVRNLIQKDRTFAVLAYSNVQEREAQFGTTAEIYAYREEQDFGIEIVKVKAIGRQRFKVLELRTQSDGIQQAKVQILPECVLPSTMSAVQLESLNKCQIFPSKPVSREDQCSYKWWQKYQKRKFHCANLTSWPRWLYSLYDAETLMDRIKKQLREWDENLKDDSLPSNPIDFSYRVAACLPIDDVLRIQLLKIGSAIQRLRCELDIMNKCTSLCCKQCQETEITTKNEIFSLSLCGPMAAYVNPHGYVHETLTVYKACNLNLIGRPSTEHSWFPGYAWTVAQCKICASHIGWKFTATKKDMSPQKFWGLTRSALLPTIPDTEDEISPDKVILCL
T2 sequence (Q05397 whole entry, species assumed): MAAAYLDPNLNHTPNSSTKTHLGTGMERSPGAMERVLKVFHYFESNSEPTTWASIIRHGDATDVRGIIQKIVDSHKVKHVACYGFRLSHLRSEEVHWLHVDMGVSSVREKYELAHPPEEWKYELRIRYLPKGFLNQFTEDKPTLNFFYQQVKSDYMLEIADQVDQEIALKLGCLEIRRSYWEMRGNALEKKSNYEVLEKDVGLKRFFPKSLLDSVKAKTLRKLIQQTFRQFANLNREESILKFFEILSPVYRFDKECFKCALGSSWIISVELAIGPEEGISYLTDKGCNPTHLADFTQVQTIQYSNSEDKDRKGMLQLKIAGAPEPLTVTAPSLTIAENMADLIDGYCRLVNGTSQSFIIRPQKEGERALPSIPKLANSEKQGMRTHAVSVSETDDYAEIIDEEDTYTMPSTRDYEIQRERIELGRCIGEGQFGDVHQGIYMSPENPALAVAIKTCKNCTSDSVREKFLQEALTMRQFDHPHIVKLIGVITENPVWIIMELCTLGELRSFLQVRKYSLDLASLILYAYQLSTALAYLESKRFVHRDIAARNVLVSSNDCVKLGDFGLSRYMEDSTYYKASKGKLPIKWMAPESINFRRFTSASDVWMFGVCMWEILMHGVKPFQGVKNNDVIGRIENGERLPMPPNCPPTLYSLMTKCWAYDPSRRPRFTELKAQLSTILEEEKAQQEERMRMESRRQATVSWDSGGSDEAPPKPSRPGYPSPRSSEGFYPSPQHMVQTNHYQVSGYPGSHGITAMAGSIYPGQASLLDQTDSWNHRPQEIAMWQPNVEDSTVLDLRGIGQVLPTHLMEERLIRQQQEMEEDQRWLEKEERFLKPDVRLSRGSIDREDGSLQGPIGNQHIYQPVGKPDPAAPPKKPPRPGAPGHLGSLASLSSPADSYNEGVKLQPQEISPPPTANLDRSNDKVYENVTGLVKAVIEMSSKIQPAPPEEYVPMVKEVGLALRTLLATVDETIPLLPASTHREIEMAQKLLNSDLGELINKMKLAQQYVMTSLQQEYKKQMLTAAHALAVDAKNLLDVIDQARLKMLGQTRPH

Structure (SMILES) | IC50 (SW620) | IC50 (THP-1) | IC50 (CCRF-CEM) | IC50 (Jurkat) | IC50 (LNcap) | IC50 (TMD8) | IC50 (LS174T) | IC50 (SU-DHL-6) | also measured
CC1(C)CCC(CN2CCN(c3ccc(C(=O)NS(=O)(=O)c4ccc(NCC5CCOCC5)c([N+](=O)[O-])c4)c(Oc4cnc5[nH]ccc5c4)c3)CC2)=C(c2ccc(Cl)cc2)C1 [ABT-199, Venetoclax, reference compound] | > 10 µM | 0.5 to 1 µM | 1 to 5 µM | 1 to 5 µM | > 10 µM | 1 to 5 µM | > 10 µM | – | –
Nc1ncnc2c1c(-c1ccc(Oc3ccccc3)cc1)nn2C1CCN(Cc2ccc(C3CCC(=O)NC3=O)cc2)CC1 (centres unmarked) [GT-03507, 3-(4-((4-(4-amino-3-(4-phenoxyphenyl)-1H-pyrazolo[3,4-d]pyrimidin-1-yl)piperidin-1-yl)methyl)phenyl)piperidine-2,6-dione] | – | – | – | – | – | 0.1 to 0.5 µM | – | 0.5 to 1 µM | inhibition at 0.5 µM [1]: 30 to 40%; inhibition at 2 µM [1]: 80 to 100%
Nc1ncnc2c1c(-c1ccc(Oc3ccccc3)cc1)nn2[C@H]1CCN(Cc2ccc(C3CCC(=O)NC3=O)c(F)c2)C[C@H]1F (stereo partly drawn) [GT-03513, 3-(4-(((3R,4S)-4-(4-amino-3-(4-phenoxyphenyl)-1H-pyrazolo[3,4-d]pyrimidin-1-yl)-3-fluoropiperidin-1-yl)methyl)-2-fluorophenyl)piperidine-2,6-dione] | – | – | – | – | – | 0.1 to 0.5 µM | – | 0.1 to 0.5 µM | –
CC1(C)CCC(c2ccc(Cl)cc2)=C(CN2CCN(c3ccc(C(=O)NS(=O)(=O)c4ccc(N[C@H](CCN5CCN(Cc6ccc(C7CCC(=O)NC7=O)cc6)CC5)CSc5ccccc5)c(S(=O)(=O)C(F)(F)F)c4)cc3)CC2)C1 (stereo partly drawn) [GT-04151, 4-(4-((4'-chloro-4,4-dimethyl-3,4,5,6-tetrahydro-[1,1'-biphenyl]-2-yl)methyl)piperazin-1-yl)-N-((4-(((2R)-4-(4-(4-(2,6-dioxopiperidin-3-yl)benzyl)piperazin-1-yl)-1-(phenylthio)butan-2-yl)amino)-3-((trifluoromethyl)sulfonyl)phenyl)sulfonyl)benzamide] | 0.01 to 0.05 µM | 0.001 to 0.01 µM | < 0.001 µM | 0.001 to 0.01 µM | 0.01 to 0.05 µM | 0.001 to 0.01 µM | 0.05 to 0.1 µM | – | –
Nc1ncnc2c1c(-c1ccc(Oc3ccccc3)cc1)nn2[C@H]1CCN(Cc2ccc(C3CCC(=O)NC3=O)cc2)C[C@H]1F (stereo partly drawn) [GT-03542, 3-(4-(((3R,4S)-4-(4-amino-3-(4-phenoxyphenyl)-1H-pyrazolo[3,4-d]pyrimidin-1-yl)-3-fluoropiperidin-1-yl)methyl)phenyl)piperidine-2,6-dione] | – | – | – | – | – | 0.1 to 0.5 µM | – | 0.1 to 0.5 µM | inhibition at 0.5 µM [1]: 20 to 30%; inhibition at 2 µM [1]: 80 to 100%
CC1(C)CCC(c2ccc(Cl)cc2)=C(CN2CCN(c3ccc(C(=O)NS(=O)(=O)c4ccc(N[C@H](CCN5CCN(Cc6ccc(C7CCC(=O)NC7=O)c(F)c6)CC5)CSc5ccccc5)c(S(=O)(=O)C(F)(F)F)c4)cc3)CC2)C1 (stereo partly drawn) [GT-04152, 4-(4-((4'-chloro-4,4-dimethyl-3,4,5,6-tetrahydro-[1,1'-biphenyl]-2-yl)methyl)piperazin-1-yl)-N-((4-(((2R)-4-(4-(4-(2,6-dioxopiperidin-3-yl)-3-fluorobenzyl)piperazin-1-yl)-1-(phenylthio)butan-2-yl)amino)-3-((trifluoromethyl)sulfonyl)phenyl)sulfonyl)benzamide] | 0.001 to 0.01 µM | 0.01 to 0.05 µM | 0.001 to 0.01 µM | 0.001 to 0.01 µM | 0.05 to 0.1 µM | 0.001 to 0.01 µM | 0.05 to 0.1 µM | – | –
CNC(=O)c1ccccc1Nc1cc(Nc2ccc(N3CCC(N(C)Cc4ccc(C5CCC(=O)NC5=O)cc4)CC3)cc2OC)ncc1C(F)(F)F (centres unmarked) [GT-03733, 2-((2-((4-(4-((4-(2,6-dioxopiperidin-3-yl)benzyl)(methyl)amino)piperidin-1-yl)-2-methoxyphenyl)amino)-5-(trifluoromethyl)pyridin-4-yl)amino)-N-methylbenzamide] | 0.1 to 0.5 µM | – | 0.1 to 0.5 µM | – | – | – | – | – | IC50 (H1975): 0.1 to 0.5 µM; IC50 (MM.1R): 0.5 to 1 µM; IC50 (MV-4-11): 0.1 to 0.5 µM; IC50 (SR): 0.05 to 0.1 µM; IC50 (CAL-62): 0.05 to 0.1 µM; inhibition at 0.5 µM ([1]; Table II-2, CRBN binding screening, HTRF, at 0.5µM): 30 to 40%; inhibition at 2 µM ([1]; Table II-2, CRBN binding screening, HTRF, at 2 µM): 40 to 53%; Degradation of substrate protein FAK (substrate protein remaining %) (FAK): A (A is defined as 0% ≤ substrate protein remaining % ≤ 80%)

Further lines, with some results ahead:

IC50 (SW620) | IC50 (THP-1) | IC50 (CCRF-CEM) | IC50 (Jurkat) | IC50 (LNcap) | Structure (SMILES) | IC50 (TMD8) | IC50 (LS174T) | IC50 (SU-DHL-6) | also measured
0.1 to 0.5 µM | 0.01 to 0.05 µM | 0.001 to 0.01 µM | 0.01 to 0.05 µM | 0.1 to 0.5 µM | CC1(C)CCC(c2ccc(Cl)cc2)=C(CN2CCN(c3ccc(C(=O)NS(=O)(=O)c4ccc(N[C@H](CCN5CCN(Cc6cccc(N7CCC(=O)NC7=O)c6)CC5)CSc5ccccc5)c(S(=O)(=O)C(F)(F)F)c4)cc3)CC2)C1 [GT-04278, (R)-4-(4-((4'-chloro-4,4-dimethyl-3,4,5,6-tetrahydro-[1,1'-biphenyl]-2-yl)methyl)piperazin-1-yl)-N-((4-((4-(4-(3-(2,4-dioxotetrahydropyrimidin-1(2H)-yl)benzyl)piperazin-1-yl)-1-(phenylthio)butan-2-yl)amino)-3-((trifluoromethyl)sulfonyl)phenyl)sulfonyl)benzamide] | 0.01 to 0.05 µM | 0.5 to 1 µM | – | –
0.05 to 0.1 µM | 0.01 to 0.05 µM | 0.001 to 0.01 µM | 0.01 to 0.05 µM | 0.05 to 0.1 µM | CC1(C)CCC(c2ccc(Cl)cc2)=C(CN2CCN(c3ccc(C(=O)NS(=O)(=O)c4ccc(N[C@H](CCN5CCN(Cc6cccc(NC7CCC(=O)NC7=O)c6)CC5)CSc5ccccc5)c(S(=O)(=O)C(F)(F)F)c4)cc3)CC2)C1 (stereo partly drawn) [GT-04279, 4-(4-((4'-chloro-4,4-dimethyl-3,4,5,6-tetrahydro-[1,1'-biphenyl]-2-yl)methyl)piperazin-1-yl)-N-((4-(((2R)-4-(4-(3-((2,6-dioxopiperidin-3-yl)amino)benzyl)piperazin-1-yl)-1-(phenylthio)butan-2-yl)amino)-3-((trifluoromethyl)sulfonyl)phenyl)sulfonyl)benzamide] | 0.01 to 0.05 µM | 0.1 to 0.5 µM | – | –
0.5 to 1 µM | 0.1 to 0.5 µM | 0.1 to 0.5 µM | 0.1 to 0.5 µM | 1 to 5 µM | CC1(C)CCC(c2ccc(Cl)cc2)=C(CN2CCN(c3ccc(C(=O)NS(=O)(=O)c4ccc(N[C@H](CCN5CCOCC5)CSc5ccccc5)c(S(=O)(=O)C(F)(F)F)c4)cc3)CC2)C1 [ABT-263, Navitoclax, reference compound] | 1 to 5 µM | 0.5 to 1 µM | – | –
